Measurements as given in patent US5919631A, “Method of determining the degree of aggregation of the β-A4 peptide” (Hoechst Marion Roussel, Inc., priority 1996, dated 1999).
Like-named read-outs stand apart in the source and are kept apart here.

Biological target: β-amyloid (βA4) peptide (Homo sapiens, UniProt P05067)
Settings: 37° C.; for percentage of increase of aggregation / percent decrease in aggregation of β-amyloid: 48 hours; for percent decrease in aggregation of β-amyloid: 25 μM β-amyloid
Procedure: β-amyloid (also known as (βA-4) peptide was dissolved in 100% dimethylsulfoxide (DMSO) at 10 mg/ml (or 2500 μM) concentration. The resultant solution was diluted to 1 mg/ml (or 250 μM) stock in Phosphate Buffered Saline (PBS), pH 7.4, just prior to setting up the assay and dispensed in individual sample wells of a Corning 96-well plate at 16 μl per well (i.e. a final concentration of 25 μM). All treatments were done in triplicate.
In this example, the candidate compound was added to the test wells at three different concentrations (250 μM, 500 μM and 1 mM). Total volume in each well was brought up to 160 μl with PBS. For untreated control wells, no compound was added to the β-amyloid peptide, and the total volume was made to 160 μl with PBS. The plates were sealed with parafilm and incubated at 37° C. for 48 hours.
(§1) At the end of the incubation period, the plates were taken out and 25 μl of Bio-Rad protein assay dye reagent (Bradford dye) was added to all the wells with samples. A standard curve was also set up at this time for estimation of fresh (also considered as unaggregared) peptide absorbance. The dye was mixed by pipeting and the plates quickly spun at 2500 rpm to remove bubbles.
The Absorbance was read at 595 nm in a Dynatech MR5000 plate reader 15 minutes after adding the dye.
The procedure of Example 1 was repeated except that hydrogen peroxide (10 μl of 30% stock) was added to the wells in a 96-well plate with 16 μl of the 1 mg/ml β-amyloid stock. The final volume was then brought up to 160 μl by adding 134 μl of PBS to these wells. The plate was sealed and incubated at 37° C. for 48 hours.
as §1, with “samples as in Example 1.” for “samples.”, “again used” for “also set up at this time”, “unaggregated)” for “unaggregared)”
The absorbance was read at 595 nm in the Dynatech MR5000 plate reader 15 minutes after adding the dye. The amount of aggregation was estimated by subtracting background and taking the difference between the fresh and hydrogen peroxide treated β-amyloid readings. The difference was expressed as percent over fresh or unaggregated peptide.

Chain of β-amyloid (βA4) peptide (P05067 672-713 limits assumed): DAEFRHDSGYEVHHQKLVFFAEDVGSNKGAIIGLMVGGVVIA

## pentosan polysulfate
0.5 μM compound
  percentage of increase of aggregation: 40.8%
5 μM compound
  percentage of increase of aggregation: 57.1%
50 μM compound
  percentage of increase of aggregation: 62.9%

## OO [hydrogen peroxide]
10 μl of 30% stock in 160 μl, after 48 hrs
  percentage of aggregation (difference between fresh and treated β-amyloid, percent over fresh peptide): 97.7%

## CCCn1cnc2c1c(=O)n(CCCCC(C)=O)c(=O)n2C [propentofylline, 1-(5'-oxohexyl)-3-methyl-7-propyl-2,6-(1H,3H)-purinedione]
500 μM compound
  percent decrease in aggregation of β-amyloid: 29.68%
1 mM compound
  percent decrease in aggregation of β-amyloid: 37.4%
